Test results from the supplement of paper PMC13380429.

Assays:
A549-ACE2 = assay: drug-induced phospholipidosis relative to tamoxifen; higher = more phospholipidosis
U2OS [1] = assay: relative viability EC50 (midpoint between 100% and the lowest measured viability); higher = less toxic; conditions: 72 h
Vero E6 [2] = assay: as above; conditions: 72 h
Calu-3 [3] = assay: as above; conditions: 72 h
HepG2 [4] = assay: as above; conditions: 72 h
Caco-2 [5] = assay: as above; conditions: 72 h
U2OS [6] = assay: drug sensitivity score (DSS) for viability; higher = more toxic; extreme values may be limits of the assay; conditions: 72 h
Vero E6 [7] = assay: as above; conditions: 72 h
Calu-3 [8] = assay: as above; conditions: 72 h
HepG2 [9] = assay: as above; conditions: 72 h
Caco-2 [10] = assay: as above; conditions: 72 h
[11] = system: A549-ACE2 infected with SARS-CoV-2; assay: morphology score (similarity to uninfected cells); higher = more like uninfected cells; conditions: 24 h
[12] = system: A549-ACE2 infected with SARS-CoV-2; assay: cell count relative to DMSO; higher = less toxic; conditions: 24 h
[13] = system: A549-ACE2 infected with SARS-CoV-2; assay: SARS-CoV-2 infection rate relative to DMSO; higher = more infection; conditions: 24 h
U2OS [14] = assay: cell viability relative to DMSO; higher = less toxic; conditions: 72 h
Vero E6 [15] = assay: as above; conditions: 72 h
Calu-3 [16] = assay: as above; conditions: 72 h
HepG2 [17] = assay: as above; conditions: 72 h
Caco-2 [18] = assay: as above; conditions: 72 h

O=C(COc1ccc(Cl)cc1)N[C@H]1CC[C@H](NC(=O)COc2ccc(Cl)cc2)CC1 [ISRIB]
drug-induced phospholipidosis [%], A549-ACE2
Conditions	0.3 µM	0.833333 µM	3.33333 µM	6.66667 µM	10 µM	30 µM
24 h	-0.51	0.36	-2.23	-2.98	3.29	-1.76
48 h	0.57	-0.91	-1.5	0.01	2.91	2.54
72 h	-0.626	-0.0303	-1	1.31	3.63	5.83

Conditions	drug sensitivity score	relative viability EC50 [µM]
Caco-2 [5]	–	> 10
Caco-2 [10]	0	–
Calu-3 [3]	–	> 10
Calu-3 [8]	0	–
HepG2 [4]	–	> 10
HepG2 [9]	0	–
U2OS [1]	–	> 10
U2OS [6]	0	–
Vero E6 [2]	–	> 10
Vero E6 [7]	0	–

Conditions	SARS-CoV-2 infection rate, [13] [%]	cell count, [12] [%]	cell viability, Caco-2 [18] [%]	cell viability, Calu-3 [16] [%]	cell viability, HepG2 [17] [%]	cell viability, U2OS [14] [%]	cell viability, Vero E6 [15] [%]	morphology score, [11]
1 nM	–	–	98.5	107	98.4	99.7	92.2	–
10 nM	–	–	97.1	88.2	100	96.2	98.4	–
100 nM	–	–	95.1	101	105	99	97.2	–
0.3 µM	100	99	–	–	–	–	–	-0.01
1000 nM	–	–	96.6	101	100	96	95.2	–
3 µM	96	103	–	–	–	–	–	0.03
10 µM	103	99	–	–	–	–	–	0.01
10000 nM	–	–	106	99.1	96.3	99.2	91.3	–
30 µM	108	99	–	–	–	–	–	-0.2

O=C1C=C2C=C[C@@H]3C[C@@]2(O1)[C@H]1CCCCN31 [securinine]
drug-induced phospholipidosis [%], A549-ACE2
Conditions	0.3 µM	0.833333 µM	3.33333 µM	6.66667 µM	10 µM	30 µM
24 h	4.04	-1.29	-2.26	-0.14	0.15	3.11
48 h	4.43	0.73	0.81	3.64	1.66	8.62
72 h	5.5	-2.31	1.12	1.57	2.55	11.9

Conditions	drug sensitivity score	relative viability EC50 [µM]
Caco-2 [5]	–	> 10
Caco-2 [10]	0	–
Calu-3 [3]	–	> 10
Calu-3 [8]	0	–
HepG2 [4]	–	> 10
HepG2 [9]	0	–
U2OS [1]	–	> 10
U2OS [6]	0	–
Vero E6 [2]	–	> 10
Vero E6 [7]	0	–

Conditions	SARS-CoV-2 infection rate, [13] [%]	cell count, [12] [%]	cell viability, Caco-2 [18] [%]	cell viability, Calu-3 [16] [%]	cell viability, HepG2 [17] [%]	cell viability, U2OS [14] [%]	cell viability, Vero E6 [15] [%]	morphology score, [11]
1 nM	–	–	76.4	96.5	94.9	103	93.1	–
10 nM	–	–	91.5	88.5	103	94.9	101	–
100 nM	–	–	104	101	104	103	92.5	–
0.3 µM	108	92	–	–	–	–	–	-0.16
1000 nM	–	–	90.1	92.1	108	95.1	97.5	–
3 µM	107	97	–	–	–	–	–	-0.26
10 µM	109	103	–	–	–	–	–	-0.24
10000 nM	–	–	99.5	98.5	99.8	94.9	101	–
30 µM	87	84	–	–	–	–	–	-0.11

CC(=O)O[C@@H]1C[C@H]2C(C)(C)C(=O)C=C[C@]2(C)[C@H]2CC[C@@]3(C)[C@H](c4ccoc4)OC(=O)[C@H]4O[C@]43[C@@]21C [gedunin]
drug-induced phospholipidosis [%], A549-ACE2
Conditions	0.3 µM	0.833333 µM	3.33333 µM	6.66667 µM	10 µM	30 µM
24 h	2.13	1.52	8.1	16.6	23.3	40.1
48 h	7.32	5.06	10.1	18	24.2	37.8
72 h	7.41	2.35	7.47	17	21.7	40.6

Conditions	drug sensitivity score	relative viability EC50 [µM]
Caco-2 [5]	–	> 10
Caco-2 [10]	0.1	–
Calu-3 [3]	–	> 10
Calu-3 [8]	0	–
HepG2 [4]	–	> 10
HepG2 [9]	1.2	–
U2OS [1]	–	> 10
U2OS [6]	0	–
Vero E6 [2]	–	> 10
Vero E6 [7]	0.5	–

Conditions	SARS-CoV-2 infection rate, [13] [%]	cell count, [12] [%]	cell viability, Caco-2 [18] [%]	cell viability, Calu-3 [16] [%]	cell viability, HepG2 [17] [%]	cell viability, U2OS [14] [%]	cell viability, Vero E6 [15] [%]	morphology score, [11]
1 nM	–	–	97.5	102	105	99.5	101	–
10 nM	–	–	94.6	103	93.8	100	102	–
100 nM	–	–	102	115	103	95.7	102	–
0.3 µM	107	101	–	–	–	–	–	0.03
1000 nM	–	–	103	97.2	94.9	100	94.3	–
3 µM	95	96	–	–	–	–	–	0.18
10 µM	98	108	–	–	–	–	–	0.06
10000 nM	–	–	86.8	102	80.6	95.4	86.6	–
30 µM	85	103	–	–	–	–	–	0.52

CC[C@H]1CN2CCc3cc(OC)c(OC)cc3[C@@H]2C[C@@H]1C[C@H]1NCCc2cc(OC)c(OC)cc21 [emetine]
A549-ACE2, 24 h
Conditions	drug-induced phospholipidosis [%]
0.3 µM	3.73
0.833333 µM	5.74

Conditions	drug sensitivity score	relative viability EC50 [µM]
Calu-3 [3]	–	0.375
Calu-3 [8]	12	–
HepG2 [4]	–	0.0543
HepG2 [9]	26.2	–
U2OS [1]	–	0.0846
U2OS [6]	24.3	–
Vero E6 [2]	–	0.107
Vero E6 [7]	21.9	–

Conditions	SARS-CoV-2 infection rate, [13] [%]	cell count, [12] [%]	cell viability, Calu-3 [16] [%]	cell viability, HepG2 [17] [%]	cell viability, U2OS [14] [%]	cell viability, Vero E6 [15] [%]	morphology score, [11]
1 nM	–	–	105	91.7	101	94.3	–
10 nM	–	–	109	97.8	99.7	103	–
0.1 µM	5	102	–	–	–	–	0.87
100 nM	–	–	99.7	26.1	43.5	54.9	–
0.3 µM	5	91	–	–	–	–	0.7
1 µM	19	69	–	–	–	–	0.44
1000 nM	–	–	35.3	14.5	7	14	–
3 µM	23	59	–	–	–	–	0.43
10000 nM	–	–	30.8	4.5	2	6.9	–
